Experiments:
[1] = tested on: carcinoma strain of the colon (Colo201 cells); test: CD-DST cancer cell growth suppression test, Colo201; assay type: cell-based, human; details: 67.6 μg of capsanthin (FIG. 6)
Description: Employing a drug sensitivity test method (CD-DST method), Toma-pi water-soluble component condensed liquid of different concentrations was examined for growth suppressing effect at the contact time set at seven days.
The CD-DST method herein referred to is a well-known experiment method called a collagen gel drop method, and its steps are shown in FIG. 1. Its details are also described in “Establishment of Collagen Gel Droplet Embedded Culture Drug Sensitivity Test (CD-DST) and consideration about its clinical utility” in “Cancer and Chemical Treatment” (published in 1995, vol.22, 1933-1939 pages).
As a method of cultivating cancer cells, a human cancer cell first generation cultivation system kit (Plymaster made by Nitta Gelatine Co.), was used and cells were cultivated according to a normal method (reference document J. Jpn. Soc. Cancer Ther. 29(7):946-956, 1994).
The growth suppressing effect was judged in terms of suppressing percentage (T/C%) which is the ratio of a treated group to an untreated group (control group). Units μg and mg shown in FIGS. 2-7 show the concentrations of Toma-pi water-soluble components in terms of the weight of Toma-pi powder (dried powder of Capsicum Annuum L.Var.grossumn) used as raw material for water extracting. It is hereinbelow referred to as “converted concentration of Toma-pi water-soluble components”.

HL-60 cells [2] = test: Human leukemia differentiation inducing test (NBT reducing ability); assay type: cell-based; details: HL60 cells
Experimental: The differentiation inducing test using HL-60 cells, which are leukemia cells, was performed according to “New Cultured Cell Experiment Method” (written by Toshio Kuroki, on pages 286-289, published by Yodosha), “Jpn. J-Cancer” (Res. 81, 807-812, August 1990), and “Clinical Test Method” written by Izumi Kamei, page 358, published by Kinbara Shuppan) to examine the differentiation inducing ability with the NBT reducing ability as an index.
It is known that for HL60 cells, differentiation is induced by retinoic acid, DMSO or active type vitamin D3. Active type vitamin D3 (medicine for external use, treatment of psoriasis) and all-trans retinoic acid (ATRA) are used as oral medicine for treating leukemia. When leukemia cells differentiate, azurophile granules in the cells reduce. If they differentiate into granulocyte, cell nucleus segment. […] As a convenient marker for differentiation induction of leukemia cells, one method is to measure nitro blune tetrazolium (NBT) reducing ability.
The NBT test uses the fact that when promyelocytic leukemia cells such as HL60 differentiate into monocyte/macrophage, production of active oxygen increases. That is to say, formation of insoluble formozan produced when NBT is reduced due to oxidation/reduction reaction by the active oxygen is used as a marker of differentiation. Active vitamin D3 has a differentiating ability at 10^−9 to 10^−6 M, ATRA at 10^−8 to 10^−6 M, and DMSO at 1.2 to 1.3%. At the respective maximum concentrations, they can differentiate by about 90% or over. Judging by the NBT reducing ability, the results were examined.

HL-60 cells [3] = details: HL60 cells, cited from earlier work

For CC1=C(/C=C/C(C)=C/C=C/C(C)=C/C=C/C=C(C)/C=C/C=C(C)/C=C/C(=O)[C@]2(C)C[C@@H](O)CC2(C)C)C(C)(C)C[C@H](O)C1 [capsanthin], the growth suppression [1] was 24%, the “active type vitamin D3 concentration from which differentiation was promoted in combination” value (HL-60 cells [2]; capsanthin 200 μg with active type vitamin D3 (FIG. 9)) was ≥ 75 pM and the “active type vitamin D3 concentration at which differentiation was promoted in combination” value (HL-60 cells [2]; capsanthin 400 μg with active type vitamin D3 (FIG. 9)) was 10^−11 M.

For active type vitamin D3, the differentiating ability (HL-60 cells [3]; 10^−10 M, alone) is listed as “does not ordinarily show any differentiating ability”, the “concentration having differentiating ability” value (HL-60 cells [3]) is listed as 10^−9 to 10^−6 M and the NBT reducing rate (HL-60 cells [2]; 10^−9 M) is listed as “about 5%”.

In the case of CC1=C(/C=C/C(C)=C/C=C/C(C)=C/C(=O)O)C(C)(C)CCC1 [ATRA, all-trans retinoic acid], the “concentration having differentiating ability” value (HL-60 cells [3]) is listed as 10^−8 to 10^−6 M.

For C[S+](C)[O-] [DMSO], the “concentration having differentiating ability” value (HL-60 cells [3]) is given as 1.2 to 1.3%.
